“And” between values parts separate entries of the source, which are not always exact repeats. Identical values can stand only once.
How the values were obtained:
[1] = systemic clinical use; cited from earlier work
[2] = system: colon carcinoma tumor mass; experiment: Extended duration PDT of a colon carcinoma tumor mass in a patient, implanted LED probes; assay type: in vivo, human
Description: A patient in the terminal phase of recurrent malignant colon cancer having undergone chemotherapy and irradiation therapy, presented with a protruding colon carcinoma tumor mass of approximately 500 grams and approximately 13 cm in diameter, which extended through the patient's dermis. Due to the advanced state of the patient's disease and due to the highly vascularized nature of this tumor mass, resection was not feasible. Further, this large tumor mass presented a significant amount of pain and discomfort to the patient, as well as greatly impairing the patient's ability to lie flat.
Six separate light source probes, each including a linear array of LEDs, were surgically implanted in this large human tumor using standard surgical procedures. A single dose of a photosensitizer agent (aminolevulinic acid (ALA) at 60 mg/kg) was provided by oral administration to the patient. Following a period of five hours to permit sufficient clearance of the photosensitizing agent from healthy tissues, light irradiation was administered. An intensity of about 25-30 mW of light from each light source probe (650 nm peak wavelength) was delivered to the tumor for 40 hours. […] The total fluence delivered to the tumor bed during this single extended duration treatment was in excess of 20,000 Joules.
The fluence rate employed in this Example represented about 150-180 mW/cm^2, with a total fluence more than 20,000 Joules.

[3] = system: epithelial cancer cells; experiment: Nude mice injected with epithelial cancer cells preincubated with photosensitizer, low fluence light; assay type: in vivo; conditions: for tumor growth: 660 nm light 48 hours, two mice
Description: (§1) A series of experiments were performed using nude mice growing transplanted human tumors. The mice are injected with various photosensitizers and the tumors illuminated with low fluence of only 30 uW of light over a 72 hour time period. Extended tumor necrosis was observed.
(§2) All control nude mice were injected with the PDT drug (intratumor or intraperitoneal) and 5 million human carcinoma cells which developed a tumor mass. These mice were kept in a darkened environment.
(§3) Another two mice with established tumors were injected with 50-100 micrograms of Pheophorbide A into the lesion and exposed to 660 nm light (30 microwatts per cm^2) for 72 hours.
(§4) Two experimental mice were injected with epithelial cancer cells preincubated with 20 micrograms of Chlorin e6. […] Another two mice were injected with 100-150 micrograms of Chlorin e6 intratumorally and then exposed to 660 nm light (30 microwatts per cm^2) for 72 hours.

[4] = system: transplanted human tumors; experiment: Nude mice with established transplanted human tumors, photosensitizer injected, low fluence light 72 hours; assay type: in vivo; conditions: for tumor necrosis: 660 nm light 72 hours, 30 microwatts per cm^2, after 7 days, two mice
Description: as §1, §2, §3, §4
Five experimental mice bearing established tumors were injected with 1 mg Hpd intraperitoneally followed by exposure to 630 nm (peak) light (30 microwatts per cm^2) for 72 hours. […] There was no effect observed on control animals maintained in the absence of light (dark control mice).

[5] = cited from earlier work

CCOC(=O)C1=Cc2c3nc(cc4nc(cc5[n-]c(cc6[n-]c2c(C)c6CC)c(C)c5CC)C(C)=C4CC)[C@@H](C)[C@]13CC.[Cl-].[Cl-].[Sn] (racemic) [PURLYTIN]
duration of dermal photosensitivity [1]: at least several weeks

NCC(=O)CCC(=O)O [ALA, aminolevulinic acid]
collateral damage to surrounding normal tissue ([2]; ALA 60 mg/kg oral, after 40 hours of PDT): no collateral damage | radius of extensive tumor necrosis from each light source probe ([2]; ALA 60 mg/kg oral, light from 5 hours after dose, 650 nm, 40 hours of PDT, total fluence >20,000 Joules): greater than 5 cm | reduction of tumor tissue (necrotic tissue debrided) ([2]; over four weeks following PDT): approximately 500 grams

C=Cc1c(C)c2cc3nc(c(CC(=O)O)c4[nH]c(cc5nc(cc1[nH]2)C(C)=C5CC)c(C)c4C(=O)O)[C@@H](CCC(=O)O)[C@@H]3C [Chlorin e6]
tumor growth, dark control ([3]; Chlorin e6 experiment, absence of light): developed a large tumor | tumor growth ([3]; cells preincubated with 20 micrograms, 30 microwatts per cm^2, after 1.5 months): no tumor growth | tumor necrosis ([4]; 100-150 micrograms intratumorally): Extensive tumor necrosis

Oc1cccc(-c2c3nc(c(-c4cccc(O)c4)c4ccc([nH]4)c(-c4cccc(O)c4)c4nc(c(-c5cccc(O)c5)c5ccc2[nH]5)CC4)C=C3)c1 [FOSCAN]
duration of dermal photosensitivity [1]: at least several weeks

CC(=O)[O-].CC(=O)[O-].CCc1c(CC)c2cc3nc(cnc4cc(OCCOCCOCCOC)c(OCCOCCOCCOC)cc4ncc4nc(cc1[n-]2)C(CCCO)=C4C)C(C)=C3CCCO.O.[Lu+3] [Lutrin, lutetium texaphyrin]
time for clearance from normal tissues (predominant amount) ([5]; from administration): about 24 hours | time tumor tissue retains the agent ([5]; from time of administration): 48 to 96 h and 24 to 96 h | time at which a larger proportion clears from normal tissue ([5]; in vivo): about 8 hours | time at which a proportion begins to clear from normal tissue ([5]; in vivo): about 3 hours | time at which an even greater proportion clears from normal tissue ([5]; in vivo): about 16 hours

Pheophorbide A
tumor growth, dark control ([3]; Pheophorbide A experiment, maintained in the absence of light): developed a large tumor | tumor growth ([3]; cells preincubated with 10 micrograms, 30 microwatts per cm2, after 1.5 months): no tumor growth | tumor necrosis ([4]; 50-100 micrograms into the lesion): Extensive tumor necrosis | effect on tumor, dark control ([4]; Pheophorbide A experiment, absence of light): no effect

sodium porfimer [PHOTOFRIN]
duration of dermal photosensitivity [1]: up to six weeks
